# Laboratory results from ChEMBL document CHEMBL6092209, “New Discorhabdin D Analogues from Latrunculia spp. Sponges” (2024).
# Activity calls are given as the source filed them. The rule behind the calls is not given here.
# Assays:
# [1] = tested on: Panel NCI-60 (60 carcinoma cell lines); assay: Growth inhibition of human Panel NCI-60 (60 carcinoma cell lines) cells; type: functional
# [2] = tested on: Panel NCI-60 (60 carcinoma cell lines); assay: Growth inhibition of human Panel NCI-60 (60 carcinoma cell lines) cells at 10 uM; type: functional, cell-based
SMILES,GI50 [1] [µM],Activity [2]
N[C@@H](CS[C@H]1[C@H]2C(=O)C=C3S[C@H]4C[C@]31C1=C(N4)C(=O)c3[nH]cc4c3C1=[N+]2CC4)C(=O)NCC(=O)O,> 10,inactive
O=C(O)CN[C@H]1[C@H]2C(=O)C=C3S[C@H]4C[C@]31C1=C(N4)C(=O)c3[nH]cc4c3C1=[N+]2CC4,16.9,–
O=C1C=C(S[C@H]2[C@H]3C(=O)C=C4S[C@H]5C[C@]42C2=C(N5)C(=O)c4[nH]cc5c4C2=[N+]3CC5)[C@]2(C=C1Br)CCNC1=C2C2=NCCc3c[nH]c(c32)C1=O,4.8,–
Cn1cnc(S[C@H]2[C@H]3C(=O)C=C4S[C@H]5C[C@]42C2=C(N5)C(=O)c4[nH]cc5c4C2=[N+]3CC5)c1C[C@H](N)C(=O)O,> 10,–
N[C@@H](CS[C@H]1[C@H]2C(=O)C=C3S[C@H]4C[C@]31C1=C(N4)C(=O)c3[nH]cc4c3C1=[N+]2CC4)C(=O)O,> 10,inactive
N[C@@H](CCC(=O)N[C@@H](CS[C@H]1[C@H]2C(=O)C=C3S[C@H]4C[C@]31C1=C(N4)C(=O)c3[nH]cc4c3C1=[N+]2CC4)C(=O)NCC(=O)O)C(=O)O,> 10,inactive
O=C1C2=C3C4=[N+](CCc5c[nH]c1c54)[C@H]1C[C@@]34C[C@@H](N2)SC4=CC1=O,0.8,–
COc1cccc2c1C(=O)c1c(O)c3c(c(O)c1C2=O)C[C@@](O)(C(=O)CO)C[C@@H]3O[C@H]1C[C@H](N)[C@H](O)[C@H](C)O1 [DOXORUBICIN],0.12,–
COC(=O)CN[C@H]1[C@H]2C(=O)C=C3S[C@H]4C[C@]31C1=C(N4)C(=O)c3[nH]cc4c3C1=[N+]2CC4,2.45,–
N[C@H](CS[C@H]1[C@H]2C(=O)C=C3S[C@H]4C[C@]31C1=C(N4)C(=O)c3[nH]cc4c3C1=[N+]2CC4)C(=O)O,> 10,inactive
O=C1C2=C3C4=[N+](CCc5c[nH]c1c54)[C@@H]1C(=O)C=C4S[C@@H](C[C@@]43[C@H]1O)N2,0.79,–
